Common to all, as to assay type: binding
For test [1], the target named is Bruton's tyrosine kinase (Btk) kinase domain (Homo sapiens, UniProt Q06187). Briefly: ITC titration.
The target of a further test is BLK (Homo sapiens, UniProt P51451). Briefly: KinomeScan.
For test [2], the target named is T1, TYK2 (JH1domain-catalytic) (Homo sapiens, UniProt P29597).
T1 sequence (P29597 897-1176 limits assumed): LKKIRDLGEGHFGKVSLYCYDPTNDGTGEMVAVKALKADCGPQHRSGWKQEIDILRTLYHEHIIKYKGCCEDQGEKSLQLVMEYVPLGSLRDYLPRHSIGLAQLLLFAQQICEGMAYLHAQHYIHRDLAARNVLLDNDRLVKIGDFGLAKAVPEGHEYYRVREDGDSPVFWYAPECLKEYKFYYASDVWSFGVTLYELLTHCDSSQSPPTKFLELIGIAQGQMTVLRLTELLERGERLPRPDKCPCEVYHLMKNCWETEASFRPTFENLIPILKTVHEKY
Briefly: KinomeScan.

Bruton's tyrosine kinase (Btk) kinase domain, sequence (Q06187 387-569): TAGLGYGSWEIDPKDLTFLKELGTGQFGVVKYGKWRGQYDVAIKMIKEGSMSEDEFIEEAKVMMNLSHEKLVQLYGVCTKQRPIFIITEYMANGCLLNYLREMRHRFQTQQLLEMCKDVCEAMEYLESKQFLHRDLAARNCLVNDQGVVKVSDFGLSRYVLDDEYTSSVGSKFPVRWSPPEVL
BLK, sequence (P51451 2-505): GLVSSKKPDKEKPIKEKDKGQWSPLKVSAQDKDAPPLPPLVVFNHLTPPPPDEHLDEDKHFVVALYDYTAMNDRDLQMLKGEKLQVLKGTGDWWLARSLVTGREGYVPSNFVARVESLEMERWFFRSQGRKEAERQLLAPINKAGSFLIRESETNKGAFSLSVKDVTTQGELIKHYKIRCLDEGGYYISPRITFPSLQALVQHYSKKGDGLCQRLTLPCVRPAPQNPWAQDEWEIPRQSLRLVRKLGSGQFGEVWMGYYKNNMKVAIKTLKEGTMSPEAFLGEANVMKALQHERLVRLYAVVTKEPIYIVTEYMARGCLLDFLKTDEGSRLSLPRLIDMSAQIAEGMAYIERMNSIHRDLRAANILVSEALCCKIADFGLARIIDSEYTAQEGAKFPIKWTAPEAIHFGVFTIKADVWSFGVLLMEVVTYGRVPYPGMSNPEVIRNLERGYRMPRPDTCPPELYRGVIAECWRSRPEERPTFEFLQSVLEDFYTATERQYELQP

Compound `c1nc2c(Nc3ccc4c(c3)OCCO4)nc(Nc3ccc4c(c3)OCCO4)nc2[nH]1` [L6, N2,N6-bis(2,3-dihydrobenzo[b][1,4]dioxin-6-yl)-9H-purine-2,6-diamine] had a Kd in test [1] of 250 nM. Moreover, the activity at 10 µM on BLK was found to be 0.4%; in test [2] it was 0.8%.

The Kd is the equilibrium constant for the complex coming apart.

The values above are taken from article PMC6641755 (ACS Omega, 2017).
